“Also recorded” adds a separate entry of the source.
Assays:
human tumor cells = type: cell-based
normal human cells = test: Effects on normal cells in vitro (confocal microscopy, trypan blue, MTT, 3H-thymidine); type: cell-based
Procedure: More extensive studies of the effects of MA and with truncated synthetic forms of MA (MAS) on a wide range of other human tumor cells were carried out using three-dimensional confocal microscopy. Cells were cultured and then seeded onto gelatinized glass chamber slides and incubated 24 hrs with the various test materials. The slides were then fixed with formalin and treated serially with Triton X-100 (0.01%) for 10 min at 25°, 0.4 ug/ml fluorescein isothiocyanate (FITC)-labeled Phalloidin (Sigma Chem. Co.) at room temperature for 30 min to bind actin, washed with PBS and the DNA stained with Propidium iodide (PI) (0.5 ug·ml) (Sigma Chemical Co.), for 15 min. The stained slides were washed and mounted on slow fade (Molecular Probes, Inc., Eugene, Oreg.) and examined through a dual emission filter XF53 (Omega, Inc., Brattlesboro, Va.) by fluorescent microscopy. In some experiments only DNA staining was performed. In these instances Triton X-100 was not used. The slides were stained with PI and examined for cell morphology and chromatin degradation under 3D confocal microscopy.
Untreated cells (first line) show normal morphology. The confocal microscopy results also verified the specificity of MA in killing tumor cells.
To be certain that this specificity for tumor cells was not simply the consequences of a difference between cycling and non-cycling cells, the following cell-types were also used: proliferating human normal fibroblasts, endothelial cells (HUVEC), and PHA-stimulated lymphocytes. […] In fact, MA actually promoted growth of some of these cells.
(§1) These cells included human, primate, and rodent bone marrow, PBMCs, and human CD4+ T-cells, CD8+ T-cells, CD34+ cells, and macrophages enriched from normal PBMCs, as well as normal human endothelial cells and fibroblasts. Cytotoxicity was assessed by 3H-thymidine incorporation, trypan blue staining, cell numbers, and morphological examination by light and confocal microscopy. Hematopoiesis was not only unimpaired it was promoted. […] These studies were chiefly performed with rats and mice, but also included rhesus macaques treated with 0.2 mg/kg for several months. Like the in vitro results, hematopoiesis was not impaired but instead enhanced.

[1] = system: human carcinoma and sarcoma cells (PC3, KS Y-1); test: Xenotransplanted human tumors in immunodeficient mice; type: in vivo
Procedure: In the first set of experiments, MA was tested against tumors formed by xenotransplantation of various human carcinoma and sarcoma cells in immunodeficient mice. […] […] Three different synthetic forms of MA were used: full length (MAS3) and the previously described MAS1 and MAS2 (Panel C).

SIVMAC 251 = SIVMAC 251 infected rhesus macaques; type: in vivo; conditions: end-stage disease
Excerpt: Certain strains of SIV produce an AIDS-like illness in susceptible monkeys. Among them SIVMAC 251 induces disease in rhesus monkeys similar to AIDS in humans only with much greater rapidity.^174 Therapy with purified MA of 3 monkeys with end-stage disease infected 13-14 mos earlier was initiated when the animals were losing weight, highly viremic (plasma virus 0.5 to 3×10^6 copies of SIV RNA/ml by NASBA), and developing pancytopenia. […] In contrast, most untreated animals died by this period. Though the limitation of animal number precludes strong conclusions related to survival.
Far more impressive were experiments performed soon after infection (3 weeks). In these experiments, crude urinary preparations containing MA, but not crude fractions lacking MA, were inoculated subcutaneously. Using a 10^4.5 TCID50 of cell free SIVmac 251, the characteristic rise in SIV p27, reduction of CD4+ T-cells, and weight loss, which occurred in the untreated animals, was prevented in MA treated animals. The untreated animals died before 6 mos. […] However, stopping therapy led to rapid onset of virus production and development of AIDS-like disease.

[2] = Toxicity in animal studies; type: in vivo, rats, mice; conditions: incl. rhesus macaques 0.2 mg/kg for several months
Procedure: as §1

hCG receptor = target: T1, hCG receptor (Homo sapiens, UniProt P22888); test: hCG receptor binding
T1 construct: host or cells: unspecified cells
Excerpt: In this regard, unusual β-hCG gene transcripts have been known for several years,^207 and as noted above, among the several related heterodimeric glycoprotein hormones, only β-hCG has multiple genes.

T1 sequence (P22888 27-699): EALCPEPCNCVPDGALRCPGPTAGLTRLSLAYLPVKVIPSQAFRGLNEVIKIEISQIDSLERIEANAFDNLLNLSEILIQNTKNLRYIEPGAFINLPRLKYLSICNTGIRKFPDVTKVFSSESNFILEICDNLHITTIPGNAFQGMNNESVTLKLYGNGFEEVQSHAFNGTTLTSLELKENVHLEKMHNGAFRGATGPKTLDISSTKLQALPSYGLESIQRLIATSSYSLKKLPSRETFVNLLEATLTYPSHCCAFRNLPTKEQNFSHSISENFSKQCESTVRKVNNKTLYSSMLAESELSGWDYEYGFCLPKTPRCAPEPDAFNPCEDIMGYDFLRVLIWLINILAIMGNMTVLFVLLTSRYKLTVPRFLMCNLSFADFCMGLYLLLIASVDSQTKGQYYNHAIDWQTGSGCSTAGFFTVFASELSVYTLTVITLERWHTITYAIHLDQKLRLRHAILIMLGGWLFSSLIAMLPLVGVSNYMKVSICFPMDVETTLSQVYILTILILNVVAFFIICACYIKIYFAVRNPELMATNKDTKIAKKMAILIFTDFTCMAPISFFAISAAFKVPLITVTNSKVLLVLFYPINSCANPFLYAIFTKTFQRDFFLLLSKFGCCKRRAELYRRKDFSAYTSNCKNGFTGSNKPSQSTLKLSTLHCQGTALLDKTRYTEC

## VVCNYRDVRFESIRLPGCPRGVNPVVSYAVALSCQ [MA]
Human tumor cells
  effect on HTLV-I induced adult T-cell leukemia: no effect
  effect on some β-cell lymphomas: no effect
Normal human cells
  inhibition of growth or apoptosis of proliferating normal fibroblasts, HUVEC, PHA-stimulated lymphocytes: no inhibition of growth or evidence of apoptosis
Normal human cells; 2000 ng/ml
  effect on morphology of primary human fibroblasts, cord blood CD34+ cells, CD4+ T cells, macrophages: no effect
Normal human cells; concentration ranges and time periods reported
  cytopathogenicity / toxic side effects on normal cells in vitro: no toxic side effects; also recorded: no cytopathogenicity
Normal human cells; up to 10× the effective concentrations
  cytotoxicity on normal cells at higher concentrations: no evident cytotoxic effects; also recorded: no evident cytotoxicity
[1]; 300-500 ng/day (about 100-200 pmoles) for 2 to 3 weeks
  tumor regression: complete tumor regression
[1]; controls at equivalent and higher molar concentrations
  effect on xenotransplanted tumor (qualitative): marked tumor regression; also recorded: KS tumor abolished
[1]; mouse, in vivo
  inhibition of tumor growth in vivo: 60-100%
[1]; thin sections of the tumors
  blood vessel formation / angiogenesis: reduction in blood vessel formation
SIVMAC 251
  weight and T-cell number: stabilization and in some instances even increase
SIVMAC 251; 0.2 mg/kg 3 times weekly, 6 mos
  change in SIV titer: no significant change
SIVMAC 251; 6 mos
  deaths in observation period: none of the 3 animals died
[2]
  toxic side effects grossly or by blood counts: no evident toxic side effects
hCG receptor
  binding to the hCG receptor: does not bind
